Reference: patent US20240059688A1, “CONOLIDINE ANALOGUES AS SELECTIVE ACKR3 MODULATORS FOR THE TREATMENT OF CANCER” (Luxembourg Institute of Health (LIH), priority 2020, published 2024)

Experiments:
Assay type in all cases: cell-based
ACKR3 = ACKR3 (Homo sapiens, UniProt P25106); test: ACKR3 β-arrestin recruitment assay (PathHunter, β-galactosidase complementation); details: for EC50: stable human ACKR3-β-arrestin-2-CHO cells, mean ± SEM, at least two independent experiments in duplicate; for Emax: read-out: ACKR3 β-arrestin % CXCL12 Emax ± SEM
ACKR3, sequence (P25106 whole entry): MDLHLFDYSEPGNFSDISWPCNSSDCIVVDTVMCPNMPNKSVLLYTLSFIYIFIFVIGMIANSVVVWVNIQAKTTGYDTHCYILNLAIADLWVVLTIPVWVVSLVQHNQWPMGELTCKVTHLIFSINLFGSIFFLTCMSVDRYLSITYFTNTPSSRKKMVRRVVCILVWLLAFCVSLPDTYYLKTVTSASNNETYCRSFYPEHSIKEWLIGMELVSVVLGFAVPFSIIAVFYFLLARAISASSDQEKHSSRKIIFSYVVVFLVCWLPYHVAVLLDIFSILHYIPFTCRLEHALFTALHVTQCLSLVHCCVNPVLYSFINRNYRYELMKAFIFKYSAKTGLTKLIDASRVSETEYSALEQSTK
Method: (§1) Compounds were evaluated for agonist activity using a β-arrestin recruitment assay based on β-galactosidase complementation (PathHunter, DiscoverX). Stable human ACKR3-β-arrestin-2-CHO cells (DiscoverX) were plated into 96-well white-walled assay plates at 15,000 cells/well in Cell Plating Reagent 2 (DiscoveRx) and incubated at 37° C., 5% CO2 overnight. The next day, test compounds were prepared at 10× concentration in DPBS/1% DMSO and 10 μL was added to the cells. CXCL-12 was included as a positive agonist control. Following a 1.5 hr incubation at 37° C., 55 μL of detection reagent (prepared according to the manufacturer's specifications) was added to each well. The plate was incubated at room temperature for 1 hr, after which luminescence was measured at 1 sec/well using an EnSpire multimode plate reader (PerkinElmer). Relative luminescence units (RLU) were plotted against the log of compound concentration and data were fit to a three-parameter logistic curve to generate EC50 values (GraphPad Prism). EC50 and % Emax values are reported as means±SEM and are the result of at least two independent experiments performed in duplicate. The CXCR4 assay was run similarly except that human CXCR4-C2Cl2 cells (DiscoverX) were plated at 20,000 cells/well in Cell Plating Reagent 9. The next day, the media was removed and cells were incubated with Cell Plating Reagent 4 for 3 hrs, after which the assay was conducted as described above.

human CXCR4 = biological target: T1, human CXCR4 (Homo sapiens, UniProt P61073); test: CXCR4 β-arrestin recruitment assay (PathHunter); details: human CXCR4-C2Cl2 cells, relative to CXCL-12
T1 construct: host or cells: C2C12
T1 sequence (P61073 whole entry): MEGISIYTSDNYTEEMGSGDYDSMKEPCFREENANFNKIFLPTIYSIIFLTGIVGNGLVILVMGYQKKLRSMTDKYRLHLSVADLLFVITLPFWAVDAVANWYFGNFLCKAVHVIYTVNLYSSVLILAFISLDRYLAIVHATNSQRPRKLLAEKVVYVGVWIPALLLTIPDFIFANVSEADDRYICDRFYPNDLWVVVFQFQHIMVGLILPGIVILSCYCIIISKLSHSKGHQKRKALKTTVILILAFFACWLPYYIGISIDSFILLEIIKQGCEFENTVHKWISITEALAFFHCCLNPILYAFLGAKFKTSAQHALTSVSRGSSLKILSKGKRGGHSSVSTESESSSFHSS
Method: as §1

CaV 3.2 = biological target: T2, CaV 3.2 (Homo sapiens, UniProt O95180); test: CaV 3.2 calcium assay in stable human CaV3.2-HEK293 cells; details: control agonist calcium chloride
T2 construct: expressed in transfected cells
T2 sequence (O95180 whole entry): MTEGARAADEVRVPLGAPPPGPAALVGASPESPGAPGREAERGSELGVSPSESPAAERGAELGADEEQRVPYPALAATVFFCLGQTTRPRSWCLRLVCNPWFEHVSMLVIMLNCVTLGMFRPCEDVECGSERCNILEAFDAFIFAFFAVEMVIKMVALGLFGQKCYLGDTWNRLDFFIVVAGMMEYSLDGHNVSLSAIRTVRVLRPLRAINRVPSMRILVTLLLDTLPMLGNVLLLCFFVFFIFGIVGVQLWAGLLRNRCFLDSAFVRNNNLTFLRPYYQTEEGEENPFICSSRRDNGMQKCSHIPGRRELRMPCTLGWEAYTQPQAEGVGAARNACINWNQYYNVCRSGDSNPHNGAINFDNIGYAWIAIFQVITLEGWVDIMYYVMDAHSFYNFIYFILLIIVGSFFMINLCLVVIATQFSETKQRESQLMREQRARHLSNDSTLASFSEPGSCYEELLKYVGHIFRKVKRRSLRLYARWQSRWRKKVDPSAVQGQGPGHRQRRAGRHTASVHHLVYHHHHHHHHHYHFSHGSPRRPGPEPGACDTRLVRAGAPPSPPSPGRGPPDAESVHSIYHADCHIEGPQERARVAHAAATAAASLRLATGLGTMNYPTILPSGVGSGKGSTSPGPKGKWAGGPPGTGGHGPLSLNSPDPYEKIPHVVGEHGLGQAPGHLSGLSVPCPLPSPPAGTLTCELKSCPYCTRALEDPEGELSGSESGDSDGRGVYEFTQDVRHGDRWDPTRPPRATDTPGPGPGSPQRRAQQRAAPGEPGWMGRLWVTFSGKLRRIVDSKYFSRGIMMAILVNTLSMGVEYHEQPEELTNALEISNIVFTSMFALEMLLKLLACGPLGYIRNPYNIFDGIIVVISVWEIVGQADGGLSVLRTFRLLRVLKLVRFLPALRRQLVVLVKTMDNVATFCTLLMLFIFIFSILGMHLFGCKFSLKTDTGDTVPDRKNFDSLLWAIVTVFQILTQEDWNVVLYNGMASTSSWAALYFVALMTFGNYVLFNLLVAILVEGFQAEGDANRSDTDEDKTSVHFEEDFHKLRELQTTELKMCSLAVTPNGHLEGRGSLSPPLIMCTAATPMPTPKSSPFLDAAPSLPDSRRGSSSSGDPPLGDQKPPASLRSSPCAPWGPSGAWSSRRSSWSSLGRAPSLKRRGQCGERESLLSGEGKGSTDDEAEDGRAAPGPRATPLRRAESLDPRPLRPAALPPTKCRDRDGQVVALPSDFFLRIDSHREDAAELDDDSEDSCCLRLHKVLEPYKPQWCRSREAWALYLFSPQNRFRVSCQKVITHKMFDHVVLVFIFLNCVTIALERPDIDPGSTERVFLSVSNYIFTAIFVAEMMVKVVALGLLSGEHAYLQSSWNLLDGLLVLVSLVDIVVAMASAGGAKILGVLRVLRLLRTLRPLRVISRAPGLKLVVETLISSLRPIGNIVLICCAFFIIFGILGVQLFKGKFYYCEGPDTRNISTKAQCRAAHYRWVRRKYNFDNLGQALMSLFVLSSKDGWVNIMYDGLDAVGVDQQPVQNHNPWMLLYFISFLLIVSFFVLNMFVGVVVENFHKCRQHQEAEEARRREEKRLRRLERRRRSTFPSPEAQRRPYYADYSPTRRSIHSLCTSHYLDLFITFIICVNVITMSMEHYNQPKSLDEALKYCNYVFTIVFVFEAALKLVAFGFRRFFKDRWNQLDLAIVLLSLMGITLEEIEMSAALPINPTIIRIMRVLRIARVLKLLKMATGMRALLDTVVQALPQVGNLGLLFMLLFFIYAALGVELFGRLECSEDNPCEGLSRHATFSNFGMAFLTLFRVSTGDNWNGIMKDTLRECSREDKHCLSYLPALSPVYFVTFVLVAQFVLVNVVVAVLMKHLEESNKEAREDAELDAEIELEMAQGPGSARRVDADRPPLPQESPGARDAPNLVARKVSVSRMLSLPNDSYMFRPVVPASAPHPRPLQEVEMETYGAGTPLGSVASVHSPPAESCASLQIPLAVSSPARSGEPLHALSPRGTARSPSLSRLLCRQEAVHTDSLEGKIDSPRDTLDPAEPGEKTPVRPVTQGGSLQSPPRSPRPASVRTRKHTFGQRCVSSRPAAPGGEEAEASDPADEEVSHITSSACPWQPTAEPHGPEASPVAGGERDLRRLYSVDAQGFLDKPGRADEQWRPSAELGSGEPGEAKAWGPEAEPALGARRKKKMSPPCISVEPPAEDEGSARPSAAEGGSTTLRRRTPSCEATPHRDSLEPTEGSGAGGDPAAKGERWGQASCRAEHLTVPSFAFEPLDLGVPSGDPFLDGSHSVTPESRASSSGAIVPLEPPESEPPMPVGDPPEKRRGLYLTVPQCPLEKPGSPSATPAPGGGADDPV
Method: (§2) Compounds were evaluated for kappa (KOR), mu (MOR), and delta (DOR) opioid receptor agonist and antagonist activity in three individual cell lines overexpressing Gαq16 (CHO-RD-HGA16, Molecular Devices) and the human kappa, mu, and delta opioid receptors, respectively. The day before the assay, cells were plated into 96-well black-walled assay plates at 30,000 cells/well in Ham's F12 supplemented with 10% fetal bovine serum, and 100 units of penicillin and streptomycin. The cells were incubated overnight at 37° C., 5% CO2. Prior to the assay, Calcium 5 dye (Molecular Devices) was reconstituted according to the manufacturer's instructions. The reconstituted dye was diluted 1:40 in pre-warmed (37° C.) assay buffer (1×HBSS, 20 mM HEPES, 2.5 mM probenecid, pH 7.4 at 37° C.). Growth medium was removed and the cells were gently washed with 100 μL of pre-warmed (37° C.) assay buffer. The cells were incubated for 45 minutes at 37° C., 5% CO2 in 200 μL of the diluted Calcium 5 dye. For the agonist screen, a single concentration of each test compound and receptor-specific controls (U69,593, DAMGO, and DPDPE for KOR, MOR, and DOR, respectively) were prepared at 10× the desired final concentration in 1% DMSO/assay buffer, aliquoted into a 96-well polystyrene plate, and warmed to 37° C. After the dye-loading incubation period, pretreatment solution was added to each well (25 μL of 9% DMSO/assay buffer) and, after 15 min, the plate was read with a FlexStation II (Molecular Devices). Calcium-mediated changes in fluorescence were monitored every 1.52 seconds over a 60 second time period, with the FlexStation II adding 50 μL of test compounds at the 19 second time point (excitation at 485 nm, detection at 525 nm). Peak kinetic reduction (SoftMax, Molecular Devices) relative fluorescence units (RFU) were used to calculate % control agonist Emax with the equation % Emax=(test compound RFU/control agonist RFU)×100. For the antagonist screens, the same procedure was followed except that the pretreatment solution consisted of the test compounds (prepared at […] the desired final concentration in 9% DMSO/assay buffer) and the FlexStation added the EC60 concentration (prepared at 10× the desired final concentration in 1% DMSO/assay buffer) of each respective control agonist. Peak RFU were used to calculate % control EC60 inhibition with the equation % inhibition=((EC60 RFU−test compound RFU)/EC60 RFU)×100. When IC50 determinations were made, the same antagonist screen procedure was followed except that cells were pretreated with 8-pt concentration-response curves of the test compounds. Peak RFU were plotted against the log of compound concentration using non-linear regression analysis to generate IC50 values (GraphPad Prism). Each test sample was analyzed in duplicate in two independent experiments.
Compounds were evaluated for activity at CaV 3.2 using stable human CaV3.2-HEK293 cells and the control agonist calcium chloride. The day before the assay, cells were plated into 96-well black-walled assay plates coated with poly-D-lysine in DMEM-F12 supplemented with 10% fetal bovine serum, 100 units penicillin/streptomycin, and 500 μM sodium pyruvate, and incubated at 37° C., 5% CO2 overnight. Prior to the assay, Calcium 5 dye (Molecular Devices) was reconstituted according to the manufacturer instructions. The reconstituted dye was diluted 1:10 in pre-warmed (37° C.) assay buffer (1×HBSS, […], […], pH 7.4 at 37° C.). The cells were incubated for 45 minutes at 37° C., 5% CO2 in 200 μL of the diluted Calcium 5 dye. Compounds were prepared as described above and the plate was read with a FLIPR Tetra (Molecular Devices). Calcium-mediated changes in fluorescence were monitored every 1 second over a 60 second time period, with the Tetra adding 25 μL of appropriate compound at the 10 second time point (excitation at 470-495 nm, detection at 515-575 nm). […]

KOR = KOR (Homo sapiens, UniProt P41145); test: KOR calcium mobilization agonist/antagonist screen (CHO-RD-HGA16 cells); set-up: host or cells: CHO-RD-HGA16; details: single concentration; for Emax: CHO-RD-HGA16, agonist screen, control agonist U69,593; for KOR Calcium % U69, 593 Inhibition: antagonist screen, vs EC60 of U69,593
KOR, sequence (P41145 whole entry): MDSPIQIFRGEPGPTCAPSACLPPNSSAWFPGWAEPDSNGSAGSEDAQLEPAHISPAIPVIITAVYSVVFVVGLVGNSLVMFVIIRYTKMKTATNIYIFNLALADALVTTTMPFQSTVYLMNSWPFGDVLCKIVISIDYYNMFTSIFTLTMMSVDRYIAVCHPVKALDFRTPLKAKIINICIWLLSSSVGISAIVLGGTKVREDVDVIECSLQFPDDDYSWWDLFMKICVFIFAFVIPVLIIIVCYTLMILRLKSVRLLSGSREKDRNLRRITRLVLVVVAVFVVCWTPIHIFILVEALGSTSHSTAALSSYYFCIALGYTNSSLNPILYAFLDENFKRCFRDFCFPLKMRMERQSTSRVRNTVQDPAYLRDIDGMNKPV
Method: as §2

MOR = MOR (Homo sapiens, UniProt P35372); test: MOR calcium mobilization agonist/antagonist screen (CHO-RD-HGA16 cells); set-up: host or cells: CHO-RD-HGA16; details: single concentration; for Emax: CHO-RD-HGA16, agonist screen, control agonist DAMGO; for MOR Calcium % DAMGO Inhibition: antagonist screen, vs EC60 of DAMGO
MOR, sequence (P35372 whole entry): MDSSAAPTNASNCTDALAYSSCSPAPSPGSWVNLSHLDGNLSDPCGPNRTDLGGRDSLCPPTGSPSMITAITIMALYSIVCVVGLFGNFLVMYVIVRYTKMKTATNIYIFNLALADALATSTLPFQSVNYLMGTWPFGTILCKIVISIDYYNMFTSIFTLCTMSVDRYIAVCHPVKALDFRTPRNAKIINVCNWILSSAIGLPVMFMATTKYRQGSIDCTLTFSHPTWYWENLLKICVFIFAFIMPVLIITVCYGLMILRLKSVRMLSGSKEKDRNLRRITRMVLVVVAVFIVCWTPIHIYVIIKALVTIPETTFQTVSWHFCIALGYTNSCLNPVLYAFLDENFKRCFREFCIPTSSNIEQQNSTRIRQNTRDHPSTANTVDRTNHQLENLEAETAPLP
Method: as §2

DOR = DOR (Homo sapiens, UniProt P41143); test: DOR calcium mobilization agonist/antagonist screen (CHO-RD-HGA16 cells); set-up: host or cells: CHO-RD-HGA16; details: single concentration; for Emax: CHO-RD-HGA16, agonist screen, control agonist DPDPE; for DOR Calcium % DPDPE Inhibition: antagonist screen, vs EC60 of DPDPE
DOR, sequence (P41143 whole entry): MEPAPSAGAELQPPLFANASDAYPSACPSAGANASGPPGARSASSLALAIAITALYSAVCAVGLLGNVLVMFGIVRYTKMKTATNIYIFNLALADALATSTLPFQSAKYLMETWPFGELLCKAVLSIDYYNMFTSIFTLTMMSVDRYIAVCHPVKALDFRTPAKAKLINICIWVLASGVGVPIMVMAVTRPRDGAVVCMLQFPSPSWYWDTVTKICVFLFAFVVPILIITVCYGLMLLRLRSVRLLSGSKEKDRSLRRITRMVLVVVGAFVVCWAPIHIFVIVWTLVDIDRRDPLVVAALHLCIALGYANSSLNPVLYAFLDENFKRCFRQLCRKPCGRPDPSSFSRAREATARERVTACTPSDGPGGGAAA
Method: as §2

EC50 (ACKR3) [µM]	CXCR4 β-arrestin % CXCL-12Emax (n = 2) (human CXCR4) [%]	CaV 3.2 % CaCl2 Inhibition (CaV 3.2) [%]	Emax (KOR) [%]	KOR Calcium % U69, 593 Inhibition (KOR) [%]	Emax (MOR) [%]	MOR Calcium % DAMGO Inhibition (MOR) [%]	Emax (DOR) [%]	DOR Calcium % DPDPE Inhibition (DOR) [%]	Emax (ACKR3) [%]	SMILES
> 10	4	5	1	22	0	5	0	18		C/C=C1/CN2CC[C@H]1C(=O)c1[nH]c3ccc(Cl)cc3c1C2 [WW-2, (4E,5R)-10-chloro-4-ethylidene-1,4,5,7-tetrahydro-2,5-ethanoazocino[4,3-b]indol-6(3H)-one]
> 10	1	1	1	14	1	1	0	9		C/C=C1/CN2CC[C@H]1C(=O)c1[nH]c3cc(F)ccc3c1C2 [WW-3, (4E,5R)-4-ethylidene-9-fluoro-1,4,5,7-tetrahydro-2,5-ethanoazocino[4,3-b]indol-6(3H)-one]
> 10	2	6	1	14	0	0	1	9		C/C=C1/CN2CC[C@H]1C(=O)c1[nH]c3ccc(F)cc3c1C2 [WW-4, (4E,5R)-10-fluoro-4-ethylidene-1,4,5,7-tetrahydro-2,5-ethanoazocino[4,3-b]indol-6(3H)-one]
8.15 ± 0.59	7	9	20	17	1	13	2	22	171 ± 6	C/C=C1/CN2CC[C@H]1C(=O)c1[nH]c3ccc(OC)cc3c1C2 [WW-5, (4E,5R)-10-methoxy-4-ethylidene-1,4,5,7-tetrahydro-2,5-ethanoazocino[4,3-b]indol-6(3H)-one]
> 10	7	19	0	22	0	11	0	1		CCOC(=O)c1[nH]c2ccccc2c1CN1CCC(C(=O)OC)CC1 [WW-6, ethyl 3-{[4-(methoxycarbonyl)piperidin-1-yl]methyl}-1H-indole-2-carboxylate]
1.87 ± 0.096	0	50	14	38	2	14	6	16	139 ± 2	C/C=C1/CN(Cc2ccc(OC)cc2)CC[C@H]1C(=O)c1cc2ccccc2[nH]1 [WW-7, (3E,4R)-(3-ethylidene-1-(4-methoxybenzyl)piperidin-4-yl)(1H-indol-2-yl)methanone]
> 10	4	−14	3	4	1	3	5	3		C/C=C1/CNCC[C@H]1C(=O)c1cc2ccccc2[nH]1 [WW-8, (3E,4R)-(3-ethylidenepiperidin-4-yl)(1H-indol-2-yl)methanone]
2.07 ± 0.18	10	45	1	23	0	34	0	31	132 ± 6	C/C=C1/CN(CCc2ccc(F)cc2)CC[C@H]1C(=O)c1cc2ccccc2[nH]1 [WW-9, [(3E,4R)-3-ethylidene-1-(4-fluorophenethyl)piperidin-4-yl](1H-indol-2-yl)methanone]
> 10	2	−3	7	8	1	0	4	5		C/C=C1/CN(CC(C)C)CC[C@H]1C(=O)c1cc2ccccc2[nH]1 [WW-10, [(3E,4R)-3-ethylidene-1-(2-methylpropyl)piperidin-4-yl](1H-indol-2-yl)methanone]
3.28 ± 0.39	8	5	3	6	1	1	5	0	84 ± 6	C/C=C1/CN(CCC)CC[C@H]1C(=O)c1cc2ccccc2[nH]1 [WW-14, [(3E,4R)-3-ethylidene-1-propylpiperidin-4-yl](1H-indol-2-yl)methanone]
> 10	7	2	20	18	0	7	0	3		CCC1CN2CC[C@H]1C(=O)c1[nH]c3ccccc3c1C2 (stereo partly drawn) [WW-15, (5R)-4-ethyl-1,4,5,7-tetrahydro-2,5-ethanoazocino[4,3-b]indol-6(3H)-one]
